This is an account of results in patent publication EP1984353B1, “AURORA KINASE MODULATORS AND METHOD OF USE” (Amgen, Inc, priority 2006, dated 2007).

Experiment [1] deals with phosphorylation of Histone H3. In words: HeLa cell 1-hour phospho-histone assay. Type of experiment: cell-based. The settings on record: Homo sapiens, HeLa, 1 h, HeLa cells, 1 hour, average, read-out: pHH3 EC50_IP (Avg). How it is done:
HeLa cell 1-hour phospho-histone assay
The purpose of this assay is to test the inhibitory effect of Aurora compounds with respect to phosphorylation of Histone H3 in the cellular context. HeLa cells (9x10^4/well) are plated in black 96-well flat-bottom tissue culture plates and incubated for 40 hours prior to compound addition. Compounds are serially diluted in DMSO, followed by dilution into MEM containing […] HEPES; 10ul/well of diluted compounds are added to cells (0.5% DMSO final). Cells are incubated for 1 hour at 37 °C in 5% CO2. Cells are then fixed with 3.7% formaldehyde for 10 minutes, washed with wash buffer (1% goat serum and 0.1% Tween 20 in PBS), then permeabilized with 0.5% Triton X in PBS for 15 minutes. After washing with wash buffer, cells are incubated with primary antibody (Upstate #06-507 anti-phospho-histone (Ser 10) antibody (pHH3) for 1 hour at 10ug/ml. After 2 washes with wash buffer, cells are incubated with secondary antibody (Molecular Probes #A11034 goat anti-rabbit Alexa-488 for 1 hour at 1ug/ml + Hoechst 33342 nuclear dye at 1ug/ml (Molecular Probes). Cells are washed 2 times with wash buffer, and buffer replaced with PBS. Plates are scanned on the Cellomics Array Scan (6 fields, ~2000 cells/well) and % of cells that are pHH3 positive were calculated using the Cellomics algorithm.

The target in another experiment is T1, AuroraA-TPX2 (Homo sapiens, UniProt O14965).
T1 construct: 20 µL of AuroraA-TPX2 KD GST; GST
T1 sequence (O14965 133-383 limits assumed): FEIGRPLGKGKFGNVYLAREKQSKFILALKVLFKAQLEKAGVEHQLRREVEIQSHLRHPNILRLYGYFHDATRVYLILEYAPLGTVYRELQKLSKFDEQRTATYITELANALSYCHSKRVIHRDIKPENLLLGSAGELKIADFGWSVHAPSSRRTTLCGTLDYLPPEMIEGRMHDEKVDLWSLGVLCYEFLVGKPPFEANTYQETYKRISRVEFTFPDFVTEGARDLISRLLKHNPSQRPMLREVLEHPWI
T1 sequence (Q9ULW0 1-43 partner limits assumed): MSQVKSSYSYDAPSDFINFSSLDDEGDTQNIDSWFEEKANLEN
In words: AuroraA-TPX2 Homogeneous Time Resolved Fluorescent (HTRF) kinase assay. Type of experiment: biochemical. The settings on record: average, read-out: AurA/TP X2_ IC50_IP (Avg). The essentials:
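Aurora-A/TPX2 phosphorylates biotinylated PLK peptide (about 1 µM) with ATP for about 120 min in 60 mM HEPES pH 7.5, 10 mM MgCl2, 2 mM DTT. EDTA quench, overnight equilibration with Eu-anti-phosphoPLK antibody and SA-APC; HTRF read at 615/655 nm after 320 nm excitation.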

The next experiment concerns the target T2, AuroraB (Homo sapiens, UniProt Q96GD4).
T2 construct: 20 µL of AuroraB FL His; His
In words: AuroraB Homogeneous Time Resolved Fluorescent (HTRF) kinase assay. Type of experiment: biochemical. The settings on record: average, read-out: AurB_ _IC50_IP (Avg). The essentials:
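Full-length His-tagged AuroraB (400 pM) phosphorylates 0.1 µM biotinylated Histone H3 with 23 µM ATP (Km(app)) in HEPES pH 7.5 with Mg/Mn, about 90 min. EDTA-quenched; Eu-anti-phosphoHistoneH3 and SA-APC HTRF, 655/615 nm ratio as phosphorylation.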
(In general: Time-resolved FRET reads energy transfer from a long-lived donor to a nearby acceptor.)

[2] abbreviates: given as numbers, unit inferred.

Each structure is given as a SMILES string. Where two headings read alike, the source gives them in different places.

T2 sequence (Q96GD4 whole entry): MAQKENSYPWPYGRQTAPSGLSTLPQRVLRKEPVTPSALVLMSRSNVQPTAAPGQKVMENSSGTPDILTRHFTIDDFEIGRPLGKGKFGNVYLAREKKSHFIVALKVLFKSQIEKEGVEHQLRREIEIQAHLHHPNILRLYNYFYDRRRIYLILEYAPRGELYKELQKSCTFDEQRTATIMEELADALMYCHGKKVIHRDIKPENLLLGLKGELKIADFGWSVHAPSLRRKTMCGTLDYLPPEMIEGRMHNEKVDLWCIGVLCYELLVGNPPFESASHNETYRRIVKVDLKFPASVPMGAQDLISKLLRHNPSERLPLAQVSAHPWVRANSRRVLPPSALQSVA

Take `Nc1n[nH]cc1-c1cccnc1Oc1ccc(Nc2nnc(-c3ccccc3)c3ccsc23)cc1` [compound 304, N-(4-((3-(3-amino-1H-pyrazol-4-yl)-2-pyridinyl)oxy)phenyl)-4-phenylthieno[2,3-d]pyridazin-7-amine]: in experiment [1] (setting [2]), the EC50 turned out to be 788 nM. Also, the IC50 at AuroraA-TPX2 (setting [2]) came out at 16.4 nM; on AuroraB (setting [2]) it was 68.7 nM.
Turning to `Cc1cc(N2CCCCC2)nnc1Nc1ccc(Oc2ncccc2-c2ccnc(N)n2)cc1` [compound 334, N-(4-((3-(2-amino-4-pyrimidinyl)-2-pyridinyl)oxy)phenyl)-4-methyl-6-(1-piperidinyl)-3-pyridazinamine], the EC50 in experiment [1] (given as class symbols) lay in the range of 500 to 2500 nM. Also, the figures for the IC50 on AuroraA-TPX2 (given as class symbols) and at AuroraB (given as class symbols) were 100 to 500 nM and at most 100 nM, respectively.
The corresponding values for `Nc1n[nH]cc1-c1cccnc1Oc1ccc(Nc2nnc(-c3ccccc3)c3c2CCCC3)cc1` [compound 308, N-(4-((3-(3-amino-1H-pyrazol-4-yl)-2-pyridinyl)oxy)phenyl)-4-phenyl-5,6,7,8-tetrahydro-1-phthalazinamine] are 500 to 2500 nM, at most 100 nM and at most 100 nM.
The corresponding values for `Nc1nccc(-c2cccnc2Oc2ccc(Nc3nnc(-c4cccc(CO)c4)c4ccccc34)cc2)n1` [compound 342, (3-(4-((4-((3-(2-amino-4-pyrimidinyl)-2-pyridinyl)oxy)phenyl)amino)-1-phthalazinyl)phenyl)methanol] are 100 to 500 nM, at most 100 nM and at most 100 nM.
The corresponding values for `Cc1cc(-c2ccccc2)nnc1Nc1ccc(Oc2ncccc2-c2ccnc(NCCCN3CCN(C)CC3)n2)cc1` [compound 422, 4-methyl-N-(4-((3-(2-((3-(4-methyl-1-piperazinyl)propyl)amino)-4-pyrimidinyl)-2-pyridinyl)oxy)phenyl)-6-phenyl-3-pyridazinamine] are 100 to 500 nM, at most 100 nM and at most 100 nM.
Take `CC(O)c1cccc(-c2nnc(Nc3ccc(Oc4ncccc4-c4ccnc(N)n4)cc3)c3ccccc23)c1` (stereo not drawn) [compound 346, 1-(3-(4-((4-((3-(2-amino-4-pyrimidinyl)-2-pyridinyl)oxy)phenyl)amino)-1-phthalazinyl)phenyl)ethanol]: the EC50 in experiment [1] (given as class symbols) was 100 to 500 nM. In addition, the IC50 at AuroraA-TPX2 (given as class symbols) and at AuroraB (given as class symbols) was at most 100 nM each time.
On to `O=C1Cc2c(-c3cccnc3Oc3ccc(Nc4nnc(-c5ccccc5)c5ccccc45)cc3)ccnc2N1` [compound 281, 4-(2-((4-((4-phenyl-1-phthalazinyl)amino)phenyl)oxy)-3-pyridinyl)-1,3-dihydro-2H-pyrrolo[2,3-b]pyridin-2-one], for which, in experiment [1] (setting [2]), the EC50 came out at 170 nM. For the same compound, the IC50 at AuroraA-TPX2 (setting [2]) stood at 20.4 nM; at AuroraB (setting [2]), 6.1 nM.
The corresponding values for `Nc1nccc(-c2cccnc2Oc2ccc(Nc3ncc(-c4ccccc4)c4ccccc34)cc2)n1` [compound 260, N-(4-((3-(2-amino-4-pyrimidinyl)-2-pyridinyl)oxy)phenyl)-4-phenyl-1-isoquinolinamine] are 228 nM, 33 nM and 14.8 nM.
`Nc1nccc(-c2cccnc2Oc2ccc(Nc3nnc(-c4cccc(O)c4)c4ccccc34)cc2)n1` [compound 343, 3-(4-((4-((3-(2-amino-4-pyrimidinyl)-2-pyridinyl)oxy)phenyl)amino)-1-phthalazinyl)phenol]: the EC50 in experiment [1] (given as class symbols) was at most 100 nM. Further, the IC50 at AuroraA-TPX2 (given as class symbols) and on AuroraB (given as class symbols) was at most 100 nM in each case.
With `CCN(CCO)CCCCNc1nccc(-c2cccnc2Oc2ccc(Nc3nnc(-c4ccccc4)c4ccccc34)cc2)n1` [compound 347, 2-(ethyl(4-((4-(2-((4-((4-phenyl-1-phthalazinyl)amino)phenyl)oxy)-3-pyridinyl)-2-pyrimidinyl)amino)butyl)amino)ethanol], the EC50 in experiment [1] (given as class symbols) was at most 100 nM. The IC50 on AuroraA-TPX2 (given as class symbols) and at AuroraB (given as class symbols) was at most 100 nM in each case.
As to `CCN(CCO)CCCNc1nccc(-c2cccnc2Oc2ccc(Nc3nnc(-c4ccccc4)cc3C)cc2)n1` [compound 350, 2-(ethyl(3-((4-(2-((4-((4-methyl-6-phenyl-3-pyridazinyl)amino)phenyl)oxy)-3-pyridinyl)-2-pyrimidinyl)amino)propyl)amino)ethanol], the EC50 in experiment [1] (given as class symbols) was 100 to 500 nM. For the same compound, the IC50 on AuroraA-TPX2 (given as class symbols) and on AuroraB (given as class symbols) was at most 100 nM in each case.
With `Cc1cc(-c2ccccc2)nnc1Nc1ccc(Oc2ncccc2-c2ccncc2)cc1` [compound 417, N-(4-(3,4'-bipyridin-2-yloxy)phenyl)-4-methyl-6-phenyl-3-pyridazinamine], the EC50 in experiment [1] (given as class symbols) was in the range of 500 to 2500 nM. The IC50 at AuroraA-TPX2 (given as class symbols) and at AuroraB (given as class symbols) was at most 100 nM in each case.
For the compound `OCC(O)CNc1nccc(-c2cccnc2Oc2ccc(Nc3nnc(-c4ccccc4)c4ccccc34)cc2)n1` (stereo not drawn) [compound 337, 3-((4-(2-((4-((4-phenyl-1-phthalazinyl)amino)phenyl)oxy)-3-pyridinyl)-2-pyrimidinyl)amino)-1,2-propanediol], the EC50 in experiment [1] (given as class symbols) fell in the range of 100 to 500 nM. Further, the IC50 on AuroraA-TPX2 (given as class symbols) and on AuroraB (given as class symbols) was at most 100 nM each time.
For the compound `Cc1csc(-c2nnc(Nc3ccc(Oc4ncccc4-c4c[nH]nc4N)cc3)c3ccccc23)n1` [compound 309, N-(4-((3-(3-amino-1H-pyrazol-4-yl)-2-pyridinyl)oxy)phenyl)-4-(4-methyl-1,3-thiazol-2-yl)-1-phthalazinamine], the EC50 in experiment [1] (given as class symbols) was in the range of 500 to 2500 nM. Also, the IC50 at AuroraA-TPX2 (given as class symbols) and on AuroraB (given as class symbols) was at most 100 nM throughout.
For `Nc1nccc(-c2cccnc2Oc2ccc(Nc3nnc(-c4ccccc4)cc3-c3ccccc3)cc2)n1` [compound 246, N-(4-((3-(2-amino-4-pyrimidinyl)-2-pyridinyl)oxy)phenyl)-4,6-diphenyl-3-pyridazinamine], the EC50 in experiment [1] (given as class symbols) was in the range of 500 to 2500 nM. The IC50 on AuroraA-TPX2 (given as class symbols) is 500 to 2500 nM; on AuroraB (given as class symbols) it was at most 100 nM.
For the compound `Cc1cc(-c2ccccc2)nnc1Nc1ccc(Oc2ncccc2-c2ccnc(NCCCN3CCN(C)CC3)n2)nc1` [compound 280, 4-methyl-N-(6-((3-(2-((3-(4-methyl-1-piperazinyl)propyl)amino)-4-pyrimidinyl)-2-pyridinyl)oxy)-3-pyridinyl)-6-phenyl-3-pyridazinamine], the EC50 in experiment [1] (given as class symbols) was in the range of 100 to 500 nM. Further, the IC50 on AuroraA-TPX2 (given as class symbols) and on AuroraB (given as class symbols) was at most 100 nM each time.
As for `Nc1nccc(-c2cccnc2Oc2ccc(Nc3nnc(-c4ccccc4)c4ccoc34)cc2)n1` [compound 250, N-(4-((3-(2-amino-4-pyrimidinyl)-2-pyridinyl)oxy)phenyl)-4-phenylfuro[2,3-d]pyridazin-7-amine], the EC50 in experiment [1] (setting [2]) was determined as 175 nM. The IC50 was 30.3 nM at AuroraA-TPX2 (setting [2]) and 19.9 nM on AuroraB (setting [2]).
For `Cc1cc(-c2ccccc2)nnc1Nc1ccc(Oc2ncccc2-c2ccnc(NCCCCN(C)C)n2)cc1` [compound 423, N,N-dimethyl-N'-(4-(2-((4-((4-methyl-6-phenyl-3-pyridazinyl)amino)phenyl)oxy)-3-pyridinyl)-2-pyrimidinyl)-1,4-butanediamine], the EC50 in experiment [1] (given as class symbols) was in the range of 100 to 500 nM. Further, the IC50 on AuroraA-TPX2 (given as class symbols) and on AuroraB (given as class symbols) was at most 100 nM throughout.
Turning to `Cc1csc(-c2nnc(Nc3ccc(Oc4ncccc4-c4ccnc(N)n4)nc3)c3ccccc23)c1` [compound 332, N-(6-((3-(2-amino-4-pyrimidinyl)-2-pyridinyl)oxy)-3-pyridinyl)-4-(4-methyl-2-thienyl)-1-phthalazinamine], the EC50 in experiment [1] (setting [2]) was found to be 3.3 nM. In addition, the results for the IC50 on AuroraA-TPX2 (setting [2]) and at AuroraB (setting [2]) were 5.2 nM and 1.6 nM, respectively.
`Cc1cc(-c2ccccc2)nnc1Nc1ccc(Oc2ncccc2-c2ccnc(NCCCN3CCCC3)n2)cc1` [compound 425, 4-methyl-6-phenyl-N-(4-((3-(2-((3-(1-pyrrolidinyl)propyl)amino)-4-pyrimidinyl)-2-pyridinyl)oxy)phenyl)-3-pyridazinamine]: the EC50 in experiment [1] (given as class symbols) fell in the range of 100 to 500 nM. Besides, the IC50 on AuroraA-TPX2 (given as class symbols) and on AuroraB (given as class symbols) was at most 100 nM each time.
